The results in this text go back to publication PMC3742241, “Novel Hybrid Virtual Screening Protocol Based on Molecular Docking and Structure-Based Pharmacophore for Discovery of Methionyl-tRNA Synthetase Inhibitors as Antibacterial Agents” (International Journal of Molecular Sciences, 2013).

Structures are written as SMILES. In brackets after ≈: the same amount, converted by molar mass.

Series [1] relates to Escherichia coli ATCC 25922. As to the kind of experiment: In vitro MIC, broth microdilution, E. coli. Format: cell-based. The note with it: ATCC25922, 5 × 10^5 CFU/mL, 16 h at 37 °C, read-out: MIC, Gram-negative bacteria, E. coli. As to the method: (§1) The 15 final hit compounds were purchased and screened for preliminary in vitro antibacterial activity against our five ATCC-bacterial strain panel (Staphylococcus aureus ATCC 29213, Methicillin-resistant Staphylococcus aureus ATCC 43300, E. coli ATCC 25922, Pseudomonas aeruginosa ATCC 27853 and Klebsiella pneumoniae ATCC 700603) by using the standard broth dilution method. […] All of the 15 final hit compounds were tested against HEK293 cell lines to avoid potential cytotoxicity of normal human cells. […] Further chemical optimization is being performed to better understand the key residues for activity and selectivity.
(§2) MICs were determined using a microdilution method with Muellere Hinton Broth (MHB) for Staphylococci and Lennox Broth (LB) for Enterococci, following the National Committee for Clinical Laboratory Standards (NCCLS) (now called the Clinical Laboratory Standards Institute [CLSI]). The stock solutions of the test compounds were diluted to give a two-fold series, with final chemical concentrations ranging from […].

The subject of series [2] is Staphylococcus aureus ATCC 29213. As to the kind of experiment: In vitro MIC, broth microdilution, S. aureus. Format: cell-based. The note with it: ATCC29213, 5 × 10^5 CFU/mL, 16 h at 37 °C, read-out: MIC, Gram-positive bacteria, S. aureus. As to the method: as §1, §2
Series [3] deals with Klebsiella pneumoniae ATCC 700603. Nature of the series: In vitro MIC, broth microdilution, K. pneumoniae. Format: cell-based. The note with it: ATCC700603, 5 × 10^5 CFU/mL, 16 h at 37 °C, read-out: MIC, Gram-negative bacteria, K. pneumoniae. As for the experimental part:
as §1, §2
Background: Dilution methods test growth across graded concentrations, often in twofold steps.

A short description of series [4]: In vitro cytotoxicity assay (MTT). The class given is cell-based, Human. The note with it: human; HEK293 cells; 48 h; MTT. As for the experimental part: as §1
(§3) Human Embryonic Kidney 293 cell line (HEK293) was acquired from ATCC. The cells were cultured in DMEM medium (Gibco-BRL, Invitrogen Co. Ltd., Carlsbad, CA, USA) supplemented with 10% (v/v) fetal bovine serum plus 100 μg/mL amikacin. The cells were maintained in a 37 °C humidified incubator with 5% CO2 atmosphere. Analysis of in vitro cytotoxicity was performed in the presence of compounds or blank solvent on cell lines seeded in 96-well plates at the density of 2 × 10^3 cells/well in serum-containing media. After 24 h incubation at 37 °C, the cells were treated with different concentrations of compounds along with a blank solvent. The cells were incubated in these conditions for 48 h. The cell viability was assessed with the 3-(4,5-dimethylthiazol-2-yl)-2,5-diphenyltetrazolium bromide (MTT) method, as previously described.

The subject of series [5] is Pseudomonas aeruginosa ATCC 27853. As to the kind of experiment: In vitro MIC, broth microdilution, P. aeruginosa. Format: cell-based. The note with it: ATCC27853, 5 × 10^5 CFU/mL, 16 h at 37 °C, read-out: MIC, Gram-negative bacteria, P. aeruginosa. As to the method:
as §1, §2

For series [6], the system named is Methicillin-resistant Staphylococcus aureus ATCC 43300. Nature of the series: In vitro MIC, broth microdilution, MRSA. The class given is cell-based. The note with it: 5 × 10^5 CFU/mL, 16 h at 37 °C, read-out: MIC, Gram-positive bacteria, MRSA. As for the experimental part: as §1, §2
Series [7] has as its system HEK293 cells. As to the kind of experiment: In vitro cytotoxicity assay (MTT). The class given is cell-based, Human. As for the experimental part:
as §1, §3

One may read the MIC as the smallest concentration in the dilution series that meets the test's criterion for growth inhibition. Broadly, the IC50 is the point on the concentration scale where inhibition reaches its midpoint. A low value points to inhibition by little substance. For the compound `Cc1ccc2c(c1)c1c3n2CCN(CC(=O)CNNC(=O)c2ccccc2)C3CCC1` (centres unmarked) [ZINC08430843], the MIC in series [1] worked out at 64 µg/mL (≈ 154 µM); in series [2], 16 µg/mL (≈ 38.4 µM); in series [3], 64 µg/mL (≈ 154 µM); in series [5], 32 µg/mL (≈ 76.8 µM); in series [6] it was 32 µg/mL (≈ 76.8 µM). In series [4], this compound had an IC50 at 48 h of more than 20 µM.

Take `Cc1sc(NC(=O)c2ccco2)c(C(Nc2ccccn2)c2ccccc2)c1C` (centres unmarked) [ZINC02709613]: the MIC amounted to 64 µg/mL (≈ 159 µM) in series [1]; 64 µg/mL (≈ 159 µM) in series [2]; 64 µg/mL (≈ 159 µM) in series [3]; 16 µg/mL (≈ 39.7 µM) in series [5]; 64 µg/mL (≈ 159 µM) in series [6]. In series [4], this compound yielded an IC50 at 48 h of more than 20 µM.

`COc1ccc(C(=O)N2CCN(CCNC(=O)C(=O)Nc3ccccc3)CC2)cc1` [ZINC04380079]: the MIC stood at 64 µg/mL (≈ 156 µM) in series [1]; 32 µg/mL (≈ 78 µM) in series [2]; 64 µg/mL (≈ 156 µM) in series [3]; 64 µg/mL (≈ 156 µM) in series [5]; 64 µg/mL (≈ 156 µM) in series [6]. This compound came in with a half-inhibitory concentration (IC50) at 48 h in series [4] of 6.84 µM.

On to `CC1CCCc2sc3c(=O)n(N)c(SCC(=O)NC(=O)Nc4ccccc4)nc3c21` (centres unmarked) [ZINC19797060], for which the minimum inhibitory concentration (MIC) is 64 µg/mL (≈ 144 µM) in series [1]; 32 µg/mL (≈ 72.1 µM) in series [2]; 64 µg/mL (≈ 144 µM) in series [3]; 16 µg/mL (≈ 36.1 µM) in series [5]; 64 µg/mL (≈ 144 µM) in series [6]. Further, in series [4], the IC50 at 48 h was more than 20 µM.

For `Cc1ccccc1C(=O)N1CCN(CCNC(=O)C(=O)Nc2ccc(Br)cc2)CC1` [ZINC08452043], the MIC in series [1] came to 16 µg/mL (≈ 33.8 µM); in series [2] it was 8 µg/mL (≈ 16.9 µM); in series [3], 32 µg/mL (≈ 67.6 µM); in series [5], 8 µg/mL (≈ 16.9 µM); in series [6], 16 µg/mL (≈ 33.8 µM). The compound further showed an IC50 at 48 h in series [4] of 10.2 µM.

Turning to `CNC(=O)NC(=O)CSc1nc2sc(-c3ccccc3)cc2c(=O)n1N` [ZINC02181060], the MIC in series [1] is 8 µg/mL (≈ 20.5 µM); in series [2] it was 4 µg/mL (≈ 10.3 µM); in series [3] it was 32 µg/mL (≈ 82.2 µM); in series [5], 16 µg/mL (≈ 41.1 µM); in series [6] it was 16 µg/mL (≈ 41.1 µM). Besides, the IC50 at 48 h in series [4] came out at 15.4 µM.

`Cc1ccc2ccc([C@H](Nc3ccccn3)c3ccc(C)c(C)c3)c(O)c2n1` [ZINC02086896]: the MIC was determined as 32 µg/mL (≈ 86.6 µM) in series [1]; 32 µg/mL (≈ 86.6 µM) in series [2]; 64 µg/mL (≈ 173 µM) in series [3]; 16 µg/mL (≈ 43.3 µM) in series [5]; 64 µg/mL (≈ 173 µM) in series [6]. Also, in series [4], half-maximal inhibition (IC50 at 48 h) was put at 3.15 µM.

On to `CC1CCCc2sc3nc(SCC(=O)NC(=O)Nc4ccccc4)n(N)c(=O)c3c21` (centres unmarked) [ZINC19797059], for which the MIC in series [1] is 64 µg/mL (≈ 144 µM); in series [2], 32 µg/mL (≈ 72.1 µM); in series [3], 64 µg/mL (≈ 144 µM); in series [5], 64 µg/mL (≈ 144 µM); in series [6], 32 µg/mL (≈ 72.1 µM). Further, the IC50 at 48 h in series [4] is more than 20 µM.

As to `O=C(NCCN1CCN(C(=O)c2ccc(Cl)cc2Cl)CC1)C(=O)Nc1ccc(Br)cc1` [ZINC08451958], the MIC in series [1] came to 64 µg/mL (≈ 121 µM); in series [2] it was 32 µg/mL (≈ 60.6 µM); in series [3], 64 µg/mL (≈ 121 µM); in series [5] it was 64 µg/mL (≈ 121 µM); in series [6], 32 µg/mL (≈ 60.6 µM). For the same compound, the concentration for half-maximal inhibition (IC50) at 48 h in series [4] was more than 20 µM.

For `CCCCCCCC[n+]1cccc(C(=O)N2CCNc3nc(NC(=O)C(C)C)[nH]c(=O)c32)c1` [ZINC08384332], the MIC in series [1] was determined as 32 µg/mL; in series [2] it was 32 µg/mL; in series [3], 64 µg/mL; in series [5], 16 µg/mL; in series [6] it was 32 µg/mL. The IC50 at 48 h in series [4] is more than 20 µM.

For the compound `COc1cc(CNCCc2ccc(S(N)(=O)=O)cc2)ccc1OCC(=O)NC(C)(C)C` [ZINC19922703], the MIC came out at 64 µg/mL (≈ 142 µM) in series [1]; 32 µg/mL (≈ 71.2 µM) in series [2]; 64 µg/mL (≈ 142 µM) in series [3]; 32 µg/mL (≈ 71.2 µM) in series [5]; 64 µg/mL (≈ 142 µM) in series [6]. The IC50 at 48 h in series [4] is more than 20 µM.

For the compound `CCCC[n+]1c(N)c(C(=O)NCc2ccc(C)cc2)cc2c(=O)n3cccc(C)c3nc21` [ZINC02424508], the MIC in series [1] came out at 16 µg/mL; in series [2], 16 µg/mL; in series [3] it was 64 µg/mL; in series [5], 64 µg/mL; in series [6] it was 32 µg/mL. Also, the IC50 at 48 h in series [4] is more than 20 µM.

Turning to `CC1(C)Cc2c(ccc3ccccc23)C(NNC(=O)c2cccc(N)c2)=N1` [ZINC00729256], the MIC in series [1] stood at 32 µg/mL (≈ 89.3 µM); in series [2], 8 µg/mL (≈ 22.3 µM); in series [3] it was 16 µg/mL (≈ 44.6 µM); in series [5] it was 4 µg/mL (≈ 11.2 µM); in series [6], 16 µg/mL (≈ 44.6 µM). The compound also showed an IC50 at 48 h in series [4] of more than 20 µM. In series [7], the “Cytotoxicity to HEK293 cells (in words)” value is reported as “non-cytotoxicity”.

For the compound `CCc1ccc(NC(=O)C(=O)NCCN2CCN(C(=O)c3ccc(Cl)cc3Cl)CC2)cc1` [ZINC06843697], the minimum inhibitory concentration (MIC) is 16 µg/mL (≈ 33.5 µM) in series [1]; 4 µg/mL (≈ 8.38 µM) in series [2]; 64 µg/mL (≈ 134 µM) in series [3]; 8 µg/mL (≈ 16.8 µM) in series [5]; 4 µg/mL (≈ 8.38 µM) in series [6]. This compound registered an IC50 at 48 h in series [4] of more than 20 µM. Besides, the “Cytotoxicity to HEK293 cells (in words)” value in series [7] is “non-cytotoxicity”.

Consider `CN(C)CCCNC(=O)c1ccccc1NC(=O)c1ccc(-c2ccccc2)cc1` [ZINC10312776], for which the MIC came out at 64 µg/mL (≈ 159 µM) in series [1]; 64 µg/mL (≈ 159 µM) in series [2]; 32 µg/mL (≈ 79.7 µM) in series [3]; 16 µg/mL (≈ 39.8 µM) in series [5]; 64 µg/mL (≈ 159 µM) in series [6]. The compound also displayed an IC50 at 48 h in series [4] of more than 20 µM.
